These are literature values, as cited in patent US6989159B2 (JDS Pharmaceuticals, LLC, priority 2000, dated 2006).

For the compound `O=C([O-])[O-].[Li+].[Li+]` [Lithium carbonate], under “in vivo”, the eliminated through urine result is on record as “More than 95%”, the “reabsorbed in the proximal convoluted tubule” value is on record as 80% and the “time to complete absorption in the gastrointestinal tract” value is “about 8 hours”. Besides, for the setting “steady state”, the “concentration in the liquor compared with the plasmatic one” value is “below 50%” and the “plasma half-life at the steady state” value is 20 to 24 h.
